A word on the IC50: it is the concentration that gives 50% inhibition.

Molecules are shown by their SMILES. Like-named read-outs stand apart in the source and are kept apart here.

The subject of this assay is phospho-serine 2056 DNA-PK in HCT116 cells. Nature of the assay: DNA-PK phosphorylation at serine 2056 (cellular), ELISA in bleomycin-treated HCT116 cells. The following applies: read-out: IC50 pDNA-PK. The class given is cell-based. On the procedure: HCT116 cells were cultivated at 37° C. and 10% CO2 in MEM alpha medium with 10% of foetal calf serum and 2 mM glutamine. The cells were detached from the base of the culture vessels with the aid of trypsin/EDTA, centrifuged off in centrifuge tubes, taken up in fresh medium, and the cell density was determined. 100,000 cells were sown in 1 ml of culture medium per cavity of a 24-well cell culture plate and cultivated overnight. Next day, 10 μM bleomycin (DNA intercalator and inductor of DNA double-strand breaks) and test substances in fresh culture medium were added to the cells, and these were cultivated for a further six hours. […] The 96-well ELISA plates were subsequently treated with a detection antibody (Abcam ab79444: total DNA-PK) and a streptavidin-HRP conjugate. The development of the enzymatic reaction was carried out with the aid of a chemiluminescent reagent, the chemiluminescence was measured with the aid of a Mithras LB940. The signals with the phospho-DNA-PK-specific antibody were standardised to the signal with the antibody against the total protein DNA-PKc. […] The DMSO control was used as blank.
In general terms: ELISA stands for enzyme-linked immunosorbent assay.

Setting [1] is: Homo sapiens, HCT-116, cellular DNA-PK phosphorylation at serine 2056, HCT116 cells.
Where [2] appears, read: cellular DNA-PK phosphorylation at serine 2056, HCT116 cells.
Where [3] appears, read: Homo sapiens, HCT-116, phospho-serine 2056 DNA-PK, bleomycin-treated HCT116 cells.
Setting [4] is: Homo sapiens, HCT-116, 6 h, cellular, HCT116 cells, 10 μM bleomycin, six hours.
[5] abbreviates: Homo sapiens, HCT-116, phospho-serine 2056 DNA-PK, bleomycin-treated HCT116 cells, class symbols A-D.

For the molecule `Cn1cnc2c(C(O)c3cc(-c4ncnc5cc(N6CCOCC6)ccc45)ccc3Cl)ncnc21` (stereo not shown) [Example 371, [2-Chloro-5-(7-morpholin-4-yl-quinazolin-4-yl)-phenyl]-(9-methyl-9H-purin-6-yl)-methanol], under setting [1], the IC50 lay in the range of 0.5 to 5 µM.

With `OC(c1cc(-c2ncnc3cc(N4CCOCC4)ccc23)ccc1Cl)c1ncnc2ccoc12` (stereo not shown) [Example 415, [2-Chloro-5-(7-morpholin-4-yl-quinazolin-4-yl)-phenyl]furo[3,2-d}-pyrimidin-4-yl-methanol (Ena 1)], the IC50 under setting [2] was < 0.5 µM.

As to `Cn1ncc2c(C(O)c3ccc(F)c(-c4ncnc5cc(N6CCOCC6)ccc45)c3)ncnc21` (stereo not shown) [Example 404, [4-Fluoro-3-(7-morpholin-4-yl-quinazolin-4-yl)-phenyl]-(1-methyl-1H-pyrazolo[3,4-d}-pyrimidin-4-yl)-methanol], under setting [1], the IC50 is < 0.5 µM.

Consider `OC(c1cc(-c2ncnc3cc(N4CCOCC4)ccc23)c(F)cc1F)c1nccnc1OC(F)F` (stereo not shown) [Example 449, (3-Difluoromethoxy-pyrazin-2-yl)-[2,4-difluoro-5-(7-morpholin-4-yl-quinazolin-4-yl)-phenyl]methanol], for which the IC50 under setting [2] fell in the range of 0.5 to 5 µM.

Regarding `NC(=O)C(c1cc(-c2ncnc3cc(N4CCOCC4)ccc23)c(F)cc1Cl)c1ncnn2cccc12` (stereo not shown) [Example 309, 2-[2-Chloro-4-fluoro-5-(7-morpholin-4-yl-quinazolin-4-yl)-phenyl]-2-[3H-pyrrolo[2,1-f][1,2,4]-triazin-(4E)-ylidene]-acetamide], under setting [3], the IC50 is 10 to 30 µM.

As to `COc1cnc(C(O)c2ccc(F)c(-c3ncnc4cc(N5CCOCC5)ccc34)c2)c(Br)c1` (stereo not shown) [Example 473, (3-bromo-5-methoxy-pyridin-2-yl)-[4-fluoro-3-(7-morpholin-4-yl-quinazolin-4-yl)-phenyl]methanol], the IC50 under setting [1] was < 0.5 µM.

For `NC(=O)C(c1cccnc1)c1cc(-c2ncnc3cc(N4CCOCC4)ccc23)c(F)cc1Cl` (stereo not shown) [Example 293, 2-[2-Chloro-4-fluoro-5-(7-morpholin-4-yl-quinazolin-4-yl)-phenyl]-2-pyridin-3-ylacetamide], the IC50 under setting [3] was 5 to 10 µM.

With `OC(c1cc(-c2ncnc3cc(N4CCOCC4)ccc23)ccc1Cl)c1ncnc2ccoc12` (stereo not shown) [Example 414, [2-Chloro-5-(7-morpholin-4-yl-quinazolin-4-yl)-phenyl]furo[3,2-d}-pyrimidin-4-yl-methanol (Ena 2)], the IC50 under setting [1] was < 0.5 µM.

Consider `O[C@@H](c1ccc(F)c(-c2ncnc3cc(N4CCOCC4)ccc23)c1)c1nccnc1Cl` [Example 28, (S)-(3-Chloro-pyrazin-2-yl)-[4-fluoro-3-(7-morpholin-4-yl-quinazolin-4-yl)phenyl]-methanol], for which the IC50 under setting [4] is 5 to 10 µM.

`Cc1nccnc1C(O)c1ccc(F)c(-c2ncnc3cc(N4CCOCC4)ccc23)c1` (stereo not shown) [Example 78, [4-Fluoro-3-(7-morpholin-4-yl-quinazolin-4-yl)phenyl]-(3-methylpyrazin-2-yl)-methanol]: the IC50 under setting [4] was < 0.5 µM.

Consider `COc1cc(C)c(C(O)c2cc(-c3ncnc4cc(N5CCOCC5)ccc34)c(F)cc2Cl)nn1` (stereo not shown) [Example 109, [2-Chloro-4-fluoro-5-(7-morpholin-4-yl-quinazolin-4-yl)-phenyl]-(6-methoxy-4-methylpyridazin-3-yl)methanol], for which the half-maximal inhibitory concentration (IC50) under setting [5] lay in the range of 5 to 10 µM.

In the case of `OC(c1ccc(F)c(-c2ncnc3cc(N4CCOCC4)ccc23)c1)c1c(F)cncc1Cl` (stereo not shown) [Example 77, (3-Chloro-5-fluoro-pyridin-4-yl)-[4-fluoro-3-(7-morpholin-4-yl-quinazolin-4-yl)phenyl]-methanol], the IC50 under setting [4] is < 0.5 µM.

On to `Cn1cc(C(O)c2ccc(F)c(-c3ncnc4cc(N5CCOCC5)ccc34)c2)cn1` (stereo not shown) [Example 191, [4-Fluoro-3-(7-morpholin-4-yl-quinazolin-4-yl)-phenyl]-(1-methyl-1H-pyrazol-4-yl)-methanol], for which, under setting [5], the IC50 was in the range of 10 to 30 µM.

For `OC(c1ccc(F)c(-c2ncnc3cc(N4CCOCC4)ccc23)c1)c1nnc2ccccn12` (stereo not shown) [Example 343, [4-Fluoro-3-(7-morpholin-4-yl-quinazolin-4-yl)-phenyl]-[1,2,4]-triazolo[4,3-a]pyridin-3-ylmethanol (Ena 2)], where the note is “phospho-serine 2056 DNA-PK, bleomycin-treated HCT116 cells”, the IC50 fell in the range of 0.5 to 5 µM.

With `OC(c1cc(-c2ncnc3cc(N4CCOCC4)ccc23)ccc1F)c1ncnc2sccc12` (stereo not shown) [Example 406, [2-Fluoro-5-(7-morpholin-4-yl-quinazolin-4-yl)-phenyl]thieno[2,3-d}-pyrimidin-4-yl-methanol], under setting [1], the IC50 is < 0.5 µM.

In the case of `Cc1nc(C(O)c2ccc(F)c(-c3ncnc4cc(N5CCOCC5)ccc34)c2)sc1CO` (stereo not shown) [Example 200, [4-Fluoro-3-(7-morpholin-4-yl-quinazolin-4-yl)-phenyl]-(5-hydroxy-methyl-4-methyl-thiazol-2-yl)-methanol], under setting [5], the half-maximal inhibitory concentration (IC50) lay in the range of 5 to 10 µM.

On to `OC(c1cccc(-c2ncnc3cc(N4CCOCC4)sc23)c1)c1nccs1` (stereo not shown) [Example 182, [3-(6-Morpholin-4-ylthieno[3,2-d}-pyrimidin-4-yl)-phenyl]thiazol-2-yl-methanol], for which, under setting [5], the 50% inhibitory concentration (IC50) was 5 to 10 µM.

Turning to `OC(c1ccc(Cl)nn1)c1cc(-c2ncnc3cc(N4CCOCC4)ccc23)c(F)cc1F` (stereo not shown) [Example 49, (6-Chloro-pyridazin-3-yl)-[2,4-difluoro-5-(7-morpholin-4-yl-quinazolin-4-yl)phenyl]-methanol], the IC50 under setting [4] lay within 0.5 to 5 µM.

Consider `CCn1cc(C(O)c2cc(-c3ncnc4cc(N5CCOCC5)ccc34)c(F)cc2Cl)cn1` (stereo not shown) [Example 202, [2-Chloro-4-fluoro-5-(7-morpholin-4-ylquinazolin-4-yl)-phenyl]-(1-ethyl-1H-pyrazol-4-yl)-methanol], for which the IC50 under setting [5] is 0.5 to 5 µM.

Regarding `COc1nccnc1C(O)c1ccc(F)c(-c2ncnc3cc(N4CCOCC4)ccc23)c1` (stereo not shown) [Example 15, [4-Fluoro-3-(7-morpholin-4-yl-quinazolin-4-yl)phenyl]-(3-methoxy-pyrazin-2-yl)methanol], the IC50 under setting [4] is < 0.5 µM.

`CCOc1cnnc(C(O)c2ccc(F)c(-c3ncnc4cc(N5CCOCC5)ccc34)c2)c1` (stereo not shown) [Example 79, (5-Ethoxypyridazin-3-yl)-[4-fluoro-3-(7-morpholin-4-yl-quinazolin-4-yl)phenyl]-methanol]: the IC50 under setting [4] lay in the range of 5 to 10 µM.

On to `Cc1nccnc1[C@H](O)c1ccc(F)c(-c2ncnc3cc(N4CCOCC4)cnc23)c1` [Example 234, (R)-[4-Fluoro-3-(7-morpholin-4-yl-pyrido[3,2-d}-pyrimidin-4-yl)-phenyl]-(3-methyl-pyrazin-2-yl)-methanol], for which the IC50 under setting [3] was < 0.5 µM.

As to `Cc1nc(C(O)c2cnc(F)c(-c3ncnc4cc(N5CCOCC5)ncc34)c2)sc1C` (stereo not shown) [Example 196, (4,5-Dimethyl-thiazol-2-yl)-[6-fluoro-5-(7-morpholin-4-yl-pyrido[4,3-d}-pyrimidin-4-yl)-pyridin-3-yl]-methanol], the IC50 under setting [5] lay within 10 to 30 µM.

With `COc1cncnc1C(O)c1ccc(F)c(-c2ncnc3cc(N4CCOCC4)ccc23)c1` (stereo not shown) [Example 87, [4-Fluoro-3-(7-morpholin-4-yl-quinazolin-4-yl)-phenyl]-(5-methoxy-pyrimidin-4-yl)-methanol], the IC50 under setting [4] is < 0.5 µM.

Turning to `COc1ccnnc1C(O)c1ccc(F)c(-c2ncnc3cc(N4CCOCC4)ccc23)c1` (stereo not shown) [Example 18, [4-Fluoro-3-(7-morpholin-4-yl-quinazolin-4-yl)phenyl]-(4-methoxy-pyridazin-3-yl)methanol], the IC50 under setting [4] is 0.5 to 5 µM.

Regarding `COc1ccc(C(C(N)=O)c2cc(-c3ncnc4cc(N5CCOCC5)ccc34)ccc2Cl)nn1` (stereo not shown) [Example 310, 2-[2-Chloro-5-(7-morpholin-4-yl-quinazolin-4-yl)-phenyl]-2-(6-methoxy-pyridazin-3-yl)acetamide], under setting [3], the IC50 was 10 to 30 µM.

As for `COc1ccc(C(OC)c2ccc(F)c(-c3ncnc4cc(N5CCOCC5)ccc34)c2)nn1` (stereo not shown) [Example 73, 4-{2-Fluoro-5-[methoxy-(6-methoxy-pyridazin-3-yl)methyl]phenyl}-7-morpholin-4-yl-quinazoline], under setting [4], the IC50 was 0.5 to 5 µM.

Consider `OC(c1ccc(F)c(-c2ncnc3cc(N4CCOCC4)ccc23)c1)c1ncnc2sccc12` (stereo not shown) [Example 437, [4-Fluoro-3-(7-morpholin-4-yl-quinazolin-4-yl)-phenyl]thieno[2,3-d}-pyrimidin-4-yl-methanol], for which the IC50 under setting [1] was < 0.5 µM.

Take `OC(c1cc(-c2ncnc3cc(N4CCOCC4)ccc23)ccc1Cl)c1nccn2cccc12` (stereo not shown) [Example 361, [2-Chloro-5-(7-morpholin-4-yl-quinazolin-4-yl)-phenyl]pyrrolo[1,2-a]-pyrazin-1-ylmethanol]: the IC50 under setting [3] fell in the range of 0.5 to 5 µM.

For `CCOc1ccc(C(O)c2ccc(F)c(-c3ncnc4cc(N5CCOCC5)ccc34)c2)nn1` (stereo not shown) [Example 134, (6-Ethoxy-pyridazin-3-yl)-[4-fluoro-3-(7-morpholin-4-yl-quinazolin-4-yl)-phenyl] methanol], the IC50 under setting [5] is 0.5 to 5 µM.

For the molecule `OC(c1cc(-c2ncnc3cc(N4CCOCC4)ccc23)c(F)cc1Cl)c1nccn2ccnc12` (stereo not shown) [Example 397, [2-Chloro-4-fluoro-5-(7-morpholin-4-yl-quinazolin-4-yl)-phenyl]imidazo-[1,2-a]pyrazin-8-yl-methanol], under setting [2], the IC50 is < 0.5 µM.
